Legend:
[1] = tested on: human acute monocytic leukemia cell line MV-4-11; test: Assay 2: cell proliferation assay (ATP quantitation, CellTiter-Glo), MV-4-11; format: cell-based; conditions: MV-4-11 cells
Method in brief: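 Read-out is CellTiter-Glo luminescence quantifying ATP. Compound exposure lasted 72 h at 37° C., 5% CO2, with 1.67×10^4 MV-4-11 cells per well in 10% FBS medium, alongside HL-60 toxicity-control cells.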

[2] = molecular target: T1, biotinylated wild-type menin and MLL-AF9 fusion protein (menin/MLL binding) (Homo sapiens, UniProt O00255); test: Assay 1: menin/MLL binding AlphaLISA assay, wild-type menin; conditions: Table 30; column head does not say wild-type or mutated menin
T1 construct: made in house; host or cells: menin: E. coli; MLL-AF9-FLAG: HEK293 cells, used as cleared lysate
T1 sequence (O00255 1-610): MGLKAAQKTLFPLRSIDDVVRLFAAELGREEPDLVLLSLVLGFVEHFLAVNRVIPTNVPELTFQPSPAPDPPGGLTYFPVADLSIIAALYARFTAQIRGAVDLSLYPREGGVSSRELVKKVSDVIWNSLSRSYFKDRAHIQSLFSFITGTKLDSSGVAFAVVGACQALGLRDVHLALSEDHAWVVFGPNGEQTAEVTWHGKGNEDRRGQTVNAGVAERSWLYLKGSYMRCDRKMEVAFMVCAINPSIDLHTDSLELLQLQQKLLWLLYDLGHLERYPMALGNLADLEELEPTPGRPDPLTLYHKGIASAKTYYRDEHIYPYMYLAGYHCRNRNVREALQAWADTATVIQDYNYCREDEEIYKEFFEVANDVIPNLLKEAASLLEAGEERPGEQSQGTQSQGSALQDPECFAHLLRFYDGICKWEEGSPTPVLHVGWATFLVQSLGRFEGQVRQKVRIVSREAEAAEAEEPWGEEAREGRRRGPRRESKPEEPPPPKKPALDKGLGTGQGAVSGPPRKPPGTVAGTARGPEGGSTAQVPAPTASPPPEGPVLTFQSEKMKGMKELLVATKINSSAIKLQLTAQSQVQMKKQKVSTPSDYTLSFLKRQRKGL
Method in brief: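 Compound was preincubated 30 min at room temperature with biotinylated menin (5 nM) and MLL-AF9-FLAG lysate from HEK293 cells, pH 7.4 buffer with 5% DMSO and DTT. Bead-based Alpha signal after 60 min with streptavidin donor and anti-FLAG acceptor beads; four-parameter logistic fit gave IC50.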

Structure (SMILES) | EC50 ([1]; Homo sapiens, MV4-11, 72 h) | IC50 [2] | EC50 ([1]; 72 h)
COc1cc(F)ccc1Oc1cncnc1N1CCC2(CCN(Cc3ccc4[nH]c(=O)[nH]c4c3)C2)C1 (stereo not drawn) [Example 209, 5-((7-(5-(4-fluoro-2-methoxyphenoxy)pyrimidin-4-yl)-2,7-diazaspiro[4.4]nonan-2-yl)methyl)-1,3-dihydro-2H-benzo[d]imidazol-2-one] | 100 to 1000 nM | < 100 nM | –
CC(C)c1ccccc1-c1cc(F)ccc1Oc1cncnc1N1CCC2(CCN(Cc3ccc4[nH]c(=O)[nH]c4c3)C2)C1 (stereo not drawn) [Example 41, 5-((7-(5-((5-fluoro-2′-isopropyl-[1,1′-biphenyl]-2-yl)oxy)pyrimidin-4-yl)-2,7-diazaspiro[4.4]nonan-2-yl)methyl)-1H-benzo[d]imidazol-2(3H)-one] | < 100 nM | < 100 nM | –
CC(C)N(C)C(=O)c1cc(F)ccc1Oc1cncnc1N1CCC2(CCN(Cc3ccc4oc(=O)[nH]c4c3)C2)C1 (stereo not drawn) [Example 174, 5-fluoro-N-isopropyl-N-methyl-2-((4-(7-((2-oxo-2,3-dihydrobenzo[d]oxazol-5-yl)methyl)-2,7-diazaspiro[4.4]nonan-2-yl)pyrimidin-5-yl)oxy)benzamide] | < 100 nM | < 100 nM | –
CC(C)N(C(=O)c1cc(F)ccc1Oc1cncnc1N1CCC2(CC(N)C(Cc3ccc4[nH]c(=O)[nH]c4c3)C2)C1)C(C)C (single isomer, unassigned) [Example 25, 2-((4-(7-amino-8-((2-oxo-2,3-dihydro-1H-benzo[d]imidazol-5-yl)methyl)-2-azaspiro[4.4]nonan-2-yl)pyrimidin-5-yl)oxy)-5-fluoro-N,N-diisopropylbenzamide] | – | < 100 nM | ≥ 1000 nM
Cn1c(-c2cc(F)ccc2Oc2cncnc2N2CC3(CCN(CC4CCC(NS(C)(=O)=O)CC4)CC3)C2)c(C2CC2)ccc1=O (stereo not drawn) [Example 80, N-(4-((2-(5-(2-(3-cyclopropyl-1-methyl-6-oxo-1,6-dihydropyridin-2-yl)-4-fluorophenoxy)pyrimidin-4-yl)-2,7-diazaspiro[3.5]nonan-7-yl)methyl)cyclohexyl) methanesulfon-amide] | < 100 nM | < 100 nM | –
CC(C)(O)CCc1cc(F)ccc1Oc1cncnc1N1CCC2(CCN(Cc3ccc4[nH]c(=O)[nH]c4c3)C2)C1 (stereo not drawn) [Example 36, 5-((7-(5-(4-fluoro-2-(3-hydroxy-3-methylbutyl)phenoxy)pyrimidin-4-yl)-2,7-diazaspiro[4.4]nonan-2-yl)methyl)-1H-benzo[d]imidazol-2(3H)-one] | 100 to 1000 nM | < 100 nM | –
CC(C)c1ncncc1-c1cc(F)ccc1Oc1cncnc1N1CC2(CC(N3CCc4cc(F)ccc4C3)CO2)C1 (stereo not drawn) [Example 139, 2-(5-(4-fluoro-2-(4-isopropylpyrimidin-5-yl)phenoxy)pyrimidin-4-yl)-7-(6-fluoro-3,4-dihydroisoquinolin-2(1H)-yl)-5-oxa-2-azaspiro[3.4]octane] | 100 to 1000 nM | < 100 nM | –
CC(=O)Nc1ccc(CN2CCC3(CCN(c4ncncc4Oc4ccc(F)cc4-c4ccccc4C(C)C)C3)C2)cc1 (stereo not drawn) [Example 221, N-(4-((7-(5-((5-fluoro-2′-isopropyl-[1,1′-biphenyl]-2-yl)oxy)pyrimidin-4-yl)-2,7-diazaspiro[4.4]nonan-2-yl)methyl)phenyl) acetamide] | 100 to 1000 nM | < 100 nM | –
O=c1[nH]c2ccc(CN3CCC4(CCN(c5ncncc5Oc5ccc(F)cc5Cc5ccccc5)C4)C3)cc2[nH]1 (stereo not drawn) [Example 77] | ≥ 1000 nM | < 100 nM | –
CC(C)Cc1cc(F)ccc1Oc1cncnc1N1CCC2(CCN(Cc3ccc4[nH]c(=O)[nH]c4c3)C2)C1 (stereo not drawn) [Example 236, 5-((7-(5-(4-fluoro-2-isobutylphenoxy)pyrimidin-4-yl)-2,7-diazaspiro[4.4]nonan-2-yl)methyl)-1,3-dihydro-2H-benzo[d]imidazol-2-one] | 100 to 1000 nM | < 100 nM | –
CC(C)N(C(=O)c1cc(F)ccc1Oc1cncnc1N1CC2(CCN(CC3CCC(O)CC3)C2)C1)C(C)C (stereo not drawn) [Example 99, 5-fluoro-2-((4-(6-((4-hydroxycyclohexyl)methyl)-2,6-diazaspiro[3.4]octan-2-yl)pyrimidin-5-yl)oxy)-N,N-diisopropylbenzamide] | 100 to 1000 nM | < 100 nM | –
CC(C)N(C)C(=O)c1cc(F)ccc1Oc1cncnc1N1CC2(CN(CC3CCCCC3)C2)C1 [Example 167, 2-((4-(6-(cyclohexylmethyl)-2,6-diazaspiro[3.3]heptan-2-yl)pyrimidin-5-yl)oxy)-5-fluoro-N-isopropyl-N-methylbenzamide] | 100 to 1000 nM | < 100 nM | –
CC(C)c1ncncc1-c1cc(F)ccc1Oc1cncnc1N1CCC2(CCN(Cc3ccc4[nH]c(=O)[nH]c4c3)C2)C1 (stereo not drawn) [Example 160, 5-((7-(5-(4-fluoro-2-(4-isopropylpyrimidin-5-yl)phenoxy)pyrimidin-4-yl)-2,7-diazaspiro[4.4]nonan-2-yl)methyl)-1,3-dihydro-2H-benzo[d]imidazol-2-one] | < 100 nM | < 100 nM | –
CC(C)N(C(=O)c1cc(F)ccc1Oc1cncnc1N1CCC2(CCN(Cc3ccc4[nH]c(=O)[nH]c4c3)C2)C1)C(C)C (racemic) [Example 1, 5-fluoro-N,N-diisopropyl-2-((4-(7-((2-oxo-2,3-dihydro-1H-benzo[d]imidazol-5-yl)methyl)-2,7-diazaspiro[4.4]nonan-2-yl)pyrimidin-5-yl)oxy)benzamide] | < 100 nM | < 100 nM | –
CCN(C(=O)C(C)C)c1cc(F)ccc1Oc1cncnc1N1CC2(CN(C(=O)Cc3ccc(S(C)(=O)=O)cc3)C2)C1 [Example 119, N-ethyl-N-(5-fluoro-2-((4-(6-(2-(4-(methylsulfonyl)phenyl)acetyl)-2,6-diazaspiro[3.3]heptan-2-yl)pyrimidin-5-yl)oxy)phenyl)isobutyramide] | 100 to 1000 nM | < 100 nM | –

More lines, now with the values ahead:

EC50 ([1]; Homo sapiens, MV4-11, 72 h) | IC50 [2] | EC50 ([1]; 72 h) | Structure (SMILES)
< 100 nM | < 100 nM | – | CCN(C(=O)c1cc(F)ccc1Oc1cncnc1N1CCC2(CCN(Cc3ccc4[nH]c(=O)[nH]c4c3)C2)C1)C(C)C (single isomer, unassigned) [Example 2B, N-ethyl-5-fluoro-N-isopropyl-2-((4-(7-((2-oxo-2,3-dihydro-1H-benzo[d]imidazol-5-yl)methyl)-2,7-diazaspiro[4.4]nonan-2-yl)pyrimidin-5-yl)oxy)benzamide]
< 100 nM | < 100 nM | – | CCN(C(=O)C(C)C)c1cc(F)ccc1Oc1cncnc1N1CC2(CCN(C[C@H]3CC[C@H](NS(C)(=O)=O)CC3)CC2)C1 [Example 86, N-ethyl-N-(5-fluoro-2-((4-(7-(((1r,4r)-4-(methylsulfonamido)cyclohexyl)methyl)-2,7-diazaspiro [3.5]nonan-2-yl)pyrimidin-5-yl)oxy)phenyl)iso-butyramide]
– | < 100 nM | < 100 nM | N#Cc1ccc(-c2cc(F)ccc2Oc2cncnc2N2CCC3(CCN(Cc4ccc5[nH]c(=O)[nH]c5c4)C3)C2)c(C2CC2)c1 (single isomer, unassigned) [Example 42B, 2-cyclopropyl-5′-fluoro-2′-((4-(7-((2-oxo-2,3-dihydro-1H-benzo[d]imidazol-5-yl)methyl)-2,7-diazaspiro[4.4]nonan-2-yl)pyrimidin-5-yl)oxy)-[1,1′-biphenyl]-4-carbonitrile]
< 100 nM | < 100 nM | – | CCN(C(=O)OC)c1cc(F)ccc1Oc1cncnc1N1CCC2(CCN(Cc3ccc4[nH]c(=O)[nH]c4c3)C2)C1 (stereo not drawn) [Example 91, methyl ethyl(5-fluoro-2-((4-(7-((2-oxo-2,3-dihydro-1H-benzo[d]imidazol-5-yl)methyl)-2,7-diazaspiro [4.4]nonan-2-yl)pyrimidin-5-yl)oxy)phenyl) carbamate]
– | < 100 nM | ≥ 1000 nM | CC(C)N(C(=O)c1cc(F)ccc1Oc1cncnc1N1CCC2(CC(N)C(Cc3ccc4[nH]c(=O)[nH]c4c3)C2)C1)C(C)C (single isomer, unassigned) [Example 24B, 2-((4-(7-amino-8-((2-oxo-2,3-dihydro-1H-benzo[d]imidazol-5-yl)methyl)-2-azaspiro[4.4]nonan-2-yl)pyrimidin-5-yl)oxy)-5-fluoro-N,N-diisopropylbenzamide]
– | < 100 nM | 100 to 1000 nM | CC(C)N(C(=O)c1cc(F)ccc1Oc1cncnc1N1CCC2(CC(O)C(Cc3ccc4[nH]c(=O)[nH]c4c3)C2)C1)C(C)C (single isomer, unassigned) [Example 23A, 5-fluoro-2-((4-(7-hydroxy-8-((2-oxo-2,3-dihydro-1H-benzo[d]imidazol-5-yl)methyl)-2-azaspiro[4.4]nonan-2-yl)pyrimidin-5-yl)oxy)-N,N-diisopropylbenzamide]

Source: patent US12312359B2 (Vitae Pharmaceuticals, LLC, priority 2016, dated 2025)
